The source of these data is patent US20240000942A1, “Craniofacial implant made of polyether ether ketone (PEEK) with deposits to store and release active substances or active Ingredient” (Arcosystem SPA, priority 2022, published 2024).

“And” between values parts separate entries of the source, which are not always exact repeats. Equal entries are not always repeated. “Also recorded” adds a separate entry of the source.

A short description of the series: Stability of the vancomycin solution within the implant reservoir (HPLC). The class given is physicochemical. How it is done:
For this, a time zero (To) sample corresponding to a sample that was immediately analyzed after its reconstitution was analyzed, along with a sample that was left to rest for 24 hours within the implant. In this way, results from the 24 hour time frame were compared with those of time zero as sample areas and degradation percentage at 24 hours.
Shaking up to the complete solution of the lyophilized powder, taking 0.5 mL of said ampule, and diluted with physiological saline solution up to 5 mL of final volume. This 5 mL of solution is injected in the reservoir of the implant. […] Said 0.5 mL were diluted up to 5 mL of final volume using 0.2M potassium dibasic phosphate buffer adjusted to pH 7.4. Then, using a syringe, said volume was loaded in the reservoir or capsule of the implant, the implant was then sealed and incorporated in an empty beaker. Nominal concentration of the solution within the reservoir is […].
After 24 hours, the chamber or reservoir was opened to extract the 0.5 mL of the solution contained within. Of said 0.5 mL extracted from the reservoir, a 0.1 mL aliquot is taken that then is transferred to a 100 mL flask for its analysis using HPLC, considering the same calibration and standard curves that were described for the previous example.

Turning to `CN[C@H](CC(C)C)C(=O)N[C@H]1C(=O)N[C@@H](CC(N)=O)C(=O)N[C@H]2C(=O)N[C@H]3C(=O)N[C@H](C(=O)N[C@H](C(=O)O)c4cc(O)cc(O)c4-c4cc3ccc4O)[C@H](O)c3ccc(c(Cl)c3)Oc3cc2cc(c3O[C@@H]2O[C@H](CO)[C@@H](O)[C@H](O)[C@H]2O[C@H]2C[C@](C)(N)[C@H](O)[C@H](C)O2)Oc2ccc(cc2Cl)[C@H]1O` [vancomycin], the HPLC sample area was 94679 and 94744 (24 hour period within the implant); 94711.5 (24 hour period within the implant, mean); 948050 and 948671 (Time 0 (analyzed immediately after reconstitution)); 948360.5 (Time 0 (analyzed immediately after reconstitution), mean). For the same molecule, the “degradation of vancomycin within the implant (in words)” value (24 hours) was “not significant; also recorded: no indication of significative degradation”.
